From patent US20130029970A1 (priority 2009, published 2013)
Where two headings read alike, the source gives them in different places.

How the values were obtained:
[1] = target: T1, human CB2 (hCB2) (Homo sapiens, UniProt P34972); assay: 35S GTPγS binding assay, hCB2 agonist; assay type: biochemical
T1 construct: (cDNA clone) CNR0200000
In short: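 Membranes (5 μg) from cells transfected with hCB2 cDNA in pcDNA3.1+ incubated with SPA beads, 0.1 nM [35S]GTPγS and 20 uM GDP in 50 mM HEPES pH 7.4, 100 mM NaCl, 5 mM MgCl2, 0.001% saponin, ± test compound. Incubation 90 min at room temperature; bound label read by scintillation counting.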

[2] = target: T2, human CB1 (hCB1) (Homo sapiens, UniProt P21554); assay: 35S GTPγS binding assay, hCB1 agonist; assay type: biochemical; conditions: GTPγS agonist, HEK-293 membranes; read-out: hCB1 EC50 (GTPyS ag)
T2 construct: (cDNA clone) CNR01L000
T2 sequence (P21554 whole entry): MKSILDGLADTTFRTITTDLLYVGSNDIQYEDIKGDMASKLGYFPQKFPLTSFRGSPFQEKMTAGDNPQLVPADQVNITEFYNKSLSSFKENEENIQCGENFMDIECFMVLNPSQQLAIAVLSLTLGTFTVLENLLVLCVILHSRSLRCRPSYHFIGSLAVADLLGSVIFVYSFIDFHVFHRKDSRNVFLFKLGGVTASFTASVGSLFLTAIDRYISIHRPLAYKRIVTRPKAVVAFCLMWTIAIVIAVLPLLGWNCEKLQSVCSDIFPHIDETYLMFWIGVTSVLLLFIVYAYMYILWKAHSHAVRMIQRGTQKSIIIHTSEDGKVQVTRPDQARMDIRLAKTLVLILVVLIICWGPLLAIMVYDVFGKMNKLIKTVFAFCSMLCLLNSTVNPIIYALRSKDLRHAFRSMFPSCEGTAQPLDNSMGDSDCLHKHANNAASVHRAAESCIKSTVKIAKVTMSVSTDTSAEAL

[3] = target: T3, recombinant human cannabinoid receptor CB2 (Homo sapiens, UniProt P34972); assay: Cannabinoid receptor radioligand binding assay, [3H]-CP 55,940 displacement, hCB2
T3 construct: (cDNA clone) CNR0200000
T3 sequence (P34972 whole entry): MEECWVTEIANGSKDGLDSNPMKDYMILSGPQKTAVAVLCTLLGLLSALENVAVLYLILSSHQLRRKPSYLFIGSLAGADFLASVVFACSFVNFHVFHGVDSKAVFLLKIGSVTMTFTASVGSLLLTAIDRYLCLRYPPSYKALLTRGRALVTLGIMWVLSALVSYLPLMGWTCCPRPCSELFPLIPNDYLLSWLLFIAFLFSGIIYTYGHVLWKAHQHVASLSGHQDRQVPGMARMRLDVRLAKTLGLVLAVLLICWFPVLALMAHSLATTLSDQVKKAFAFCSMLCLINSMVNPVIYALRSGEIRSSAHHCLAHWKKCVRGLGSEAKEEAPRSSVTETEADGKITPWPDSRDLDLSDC
In short: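 Membranes from hCB2-transfected cells, prepared by 1000×g then 40,000×g centrifugation, resuspended in 20 mM HEPES pH 7.4, 5 mM MgCl2, 1 mM EDTA, 10% sucrose.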

[4] = GTPγS agonist, HEK-293 membranes, read-out: hCB2 EC50 (GTPyS ag)

T1 sequence (P34972 whole entry): as above

SMILES | EC50 [1] [nM] | EC50 [2] [nM] | IC50 [3] [nM] | EC50 [1, 4] [nM]
COc1ccc(C(=O)c2cc3cc(C)n(CC(OC)OC)c3s2)cn1 [Compound 161, (6-(2,2-dimethoxyethyl)-5-methyl-6H-thieno[2,3-b]pyrrol-2-yl)(6-methoxypyridin-3-yl)methanone] | 1000 to 10000 | > 10000 | – | –
COc1ccc(C(=O)c2cc3cc(C)n(S(=O)(=O)N(C)C)c3s2)cn1 [Compound 113, 2-(6-Methoxynicotinoyl)-N,N,5-trimethyl-6H-thieno[2,3-b]pyrrole-6-sulfonamide] | < 100 | – | < 100 | –
COc1ccc(C(=O)c2cc3cc(C)n(CCN4CCOCC4)c3s2)nc1 [Compound 131, (5-methoxypyridin-2-yl)(5-methyl-6-(2-morpholinoethyl)-6H-thieno[2,3-b]pyrrol-2-yl)methanone] | < 100 | – | 100 to 1000 | –
Cc1cc2cc(C(=O)c3ccc(Cl)cc3)sc2n1CCN1CCOCC1 [Compound 6, (4-Chlorophenyl)(5-methyl-6-(2-morpholinoethyl)-6H-thieno[2,3-b]pyrrol-2-yl)methanone] | < 100 | – | 100 to 1000 | –
COc1ccc(C(=O)c2cc3cc(C)n(CCN4CCOC4=O)c3s2)cc1 [Compound 50, 3-(2-(2-(4-Methoxybenzoyl)-5-methyl-6H-thieno[2,3-b]pyrrol-6-yl)ethyl)oxazolidin-2-one] | 1000 to 10000 | – | 1000 to 10000 | –
CCN(CC)CCn1c(C)cc2cc(C(=O)c3ccc(OC)nc3)sc21 [Compound 142, (6-(2-(diethylamino)ethyl)-5-methyl-6H-thieno[2,3-b]pyrrol-2-yl)(6-methoxypyridin-3-yl)methanone] | 100 to 1000 | – | 1000 to 10000 | –
Cc1cc2cc(C(=O)c3ccccc3N)sc2n1CCN1CCOCC1 [Compound 48, (2-Aminophenyl)(5-methyl-6-(2-morpholinoethyl)-6H-thieno[2,3-b]pyrrol-2-yl)methanone] | < 100 | – | < 100 | –
Cc1cc2cc(C(=O)c3cccc(Cl)c3Cl)sc2n1CC1CCCCN1C (centres unmarked) [Compound 24, (2,3-Dichlorophenyl)(5-methyl-6((1-methylpiperidin-2-yl)methyl)-6H-thieno[2,3-b]pyrrol-2-yl)methanone] | < 100 | – | < 100 | –
CSc1ccc(C(=O)c2cc3cc(C)n(CCN4CCOCC4)c3s2)cc1 [Compound 115, (5-Methyl-6-(2-morpholinoethyl)-6H-thieno[2,3-b]pyrrol-2-yl)(4-(methylthio)phenyl)methanone] | 100 to 1000 | – | 100 to 1000 | –
CCOc1ccc(C(=O)c2cc3cc(C)n(CCN4CCOCC4)c3s2)cc1 [Compound 55, (4-Ethoxyphenyl)(5-methyl-6-(2-morpholinoethyl)-6H-thieno[2,3-b]pyrrol-2-yl)methanone] | < 100 | – | 100 to 1000 | –
COCCn1c(C)cc2cc(C(=O)c3cccc(Cl)c3Cl)sc21 [Compound 21, (2,3-Dichlorophenyl)(6-(2-methoxyethyl)-5-methyl-6H-thieno[2,3-b]pyrrol-2-yl)methanone] | < 100 | – | 100 to 1000 | –
COc1ccccc1C(=O)c1cc2cc(C)n(CCN3CCOCC3)c2s1 [Compound 13, (2-Methoxyphenyl)(5-methyl-6-(2-morpholinoethyl)-6H-thieno[2,3-b]pyrrol-2-yl)methanone] | < 100 | – | < 100 | –
Cc1ccc(C(=O)c2cc3cc(C)n(CCN4CCOCC4)c3s2)c(F)c1 [Compound 80, (2-Fluoro-4-methylphenyl)(5-methyl-6-(2-morpholinoethyl)-6H-thieno[2,3-b]pyrrol-2-yl)methanone] | < 100 | – | 100 to 1000 | –
Cc1cc2cc(C(=O)c3ccccc3Cl)sc2n1CCN1CCOCC1 [Compound 5, (2-Chlorophenyl)(5-methyl-6-(2-morpholinoethyl)-61-1-thieno[2,3-b]pyrrol-2-yl)methanone] | < 100 | – | < 100 | –
Cc1cc2cc(C(=O)c3ccc(OC(C)C)cc3)sc2n1CCN1CCOCC1 [Compound 111, (4-Isopropoxyphenyl)(5-methyl-6-(2-morpholinoethyl)-6H-thieno[2,3-b]pyrrol-2-yl)methanone] | 100 to 1000 | – | 100 to 1000 | –
COc1ccc(C(=O)c2cc3cc(C)n(CCCNS(C)(=O)=O)c3s2)cn1 [Compound 109, N-(3-(2-(6-Methoxynicotinoyl)-5-methyl-6H-thieno[2,3-b]pyrrol-6-yl)propyl)methanesulfonamide] | – | – | 100 to 1000 | < 100
COc1ccc(C(=O)c2cc3cc(C)n(CCN4CCOCC4)c3s2)c(C)c1 [Compound 88, (4-Methoxy-2-methylphenyl)(5-methyl-6-(2-morpholinoethyl)-6H-thieno[2,3-b]pyrrol-2-yl)methanone] | < 100 | – | < 100 | –

SMILES | EC50 [1] [nM] | EC50 [2] [nM] | IC50 [3] [nM] | EC50 [1, 4] [nM]
Cc1cc2cc(C(=O)c3ccc(N(C)C(=O)OC(C)(C)C)cc3)sc2n1CCN1CCOCC1 [Compound 132, tert-butylmethyl(4-(5-methyl-6-(2-morpholinoethyl)-6H-thieno[2,3-b]pyrrole-2-carbonyl)phenyl)carbamate] | 100 to 1000 | – | 1000 to 10000 | –
Cc1cc2cc(C(=O)c3cccc(Cl)c3Cl)sc2n1CCC1CCOCC1 [Compound 18, (2,3-Dichlorophenyl)(5-methyl-6-(2-(tetrahydro-2H-pyran-4-yl)ethyl)-6H-thieno[2,3-b]pyrrol-2-yl)methanone] | < 100 | – | < 100 | –
COCCn1c(C)cc2cc(C(=O)c3ccc(OC)cc3)sc21 [Compound 49, (6-(2-Methoxyethyl)-5-methyl-6H-thieno[2,3-b]pyrrol-2-yl)(4-methoxyphenyl)methanone] | 100 to 1000 | – | 1000 to 10000 | –
Cc1cc2cc(C(=O)c3ccc(N(C)C)cc3)sc2n1CCN1CCOCC1 [Compound 59, (4-(Dimethylamino)phenyl)(5-methyl-6-(2-morpholinoethyl)-6H-thieno[2,3-b]pyrrol-2-yl)methanone] | 100 to 1000 | – | 1000 to 10000 | –
COc1ccc(C(=O)c2cc3cc(C)n(Cc4ccncc4)c3s2)cc1 [Compound 112, (4-Methoxyphenyl)(5-methyl-6-(pyridin-4-ylmethyl)-6H-thieno[2,3-b]pyrrol-2-yl)methanone] | 100 to 1000 | – | 100 to 1000 | –
COc1ccc(C(=O)c2cc3cc(C)n(CC4CCOCC4)c3s2)cn1 [Compound 144, (6-methoxypyridin-3-yl)(5-methyl-6-((tetrahydro-2H-pyran-4-yl)methyl)-6H-thieno[2,3-b]pyrrol-2-yl)methanone] | < 100 | – | 100 to 1000 | –
COc1ccc(C(=O)c2cc3cc(C)n(CCN4CCOCC4)c3s2)cc1Cl [Compound 116, (3-Chloro-4-methoxyphenyl)(5-methyl-6-(2-morpholinoethyl)-6H-thieno[2,3-b]pyrrol-2-yl)methanone] | < 100 | – | 100 to 1000 | –
Cc1ccc(C(O)c2cc3cc(C)n(CCN4CCOCC4)c3s2)cn1 (centres unmarked) [Compound 125, (5-Methyl-6-(2-morpholinoethyl)-6H-thieno[2,3-b]pyrrol-2-yl)(6-methylpyridin-3-yl)methanol] | 100 to 1000 | – | > 10000 | –
Cc1cc2cc(C(=O)c3cccc(Cl)c3Cl)sc2n1CCN1CCCCC1 [Compound 23, (2,3-Dichlorophenyl)(5-methyl-6-(2-(piperidin-1-yl)ethyl)-6H-thieno[2,3-b]pyrrol-2-yl)methanone] | < 100 | – | < 100 | –
COc1ccc(C(=O)c2cc3cc(C)n(CC4CCOCC4)c3s2)c(F)c1 [Compound 145, (2-fluoro-4-methoxyphenyl)(5-methyl-6-((tetrahydro-2H-pyran-4-yl)methyl)-6H-thieno[2,3-b]pyrrol-2-yl)methanone] | < 100 | – | < 100 | –
COc1ccc(C(O)c2cc3cc(C)n(CCN4CCOCC4)c3s2)cc1 (centres unmarked) [Compound 100, (4-Methoxyphenyl)(5-methyl-6-(2-morpholinoethyl)-6H-thieno[2,3-b]pyrrol-2-yl)methanol] | – | – | 100 to 1000 | < 100
COc1ccc(C(=O)c2cc3cc(C)n(CCN4CCCCC4)c3s2)c(F)c1 [Compound 98, (2-Fluoro-4-methoxyphenyl)(5-methyl-6-(2-(piperidin-1-yl)ethyl)-6H-thieno[2,3-b]pyrrol-2-yl)methanone] | < 100 | – | < 100 | –
COc1ccc(C(=O)c2cc3cc(C)n(CCNS(C)(=O)=O)c3s2)cc1 [Compound 71, N-(2-(2-(4-Methoxybenzoyl)-5-methyl-6H-thieno[2,3-b]pyrrol-6-yl)ethyl)methanesulfonamide] | 100 to 1000 | – | 1000 to 10000 | –
Cc1cc2cc(C(=O)c3ccc(Cl)c(Cl)c3)sc2n1CCN1CCOCC1 [Compound 9, (3,4-Dichlorophenyl)(5-methyl-6-(2-morpholinoethyl)-6H-thieno[2,3-b]pyrrol-2-yl)methanone] | 1000 to 10000 | – | 100 to 1000 | –
Cc1cc2cc(C(=O)c3cccc(Cl)c3Cl)sc2n1CCN1CCOCC1 [Compound 1, (2,3-dichlorophenyl)(5-methyl-6-(2-morpholinoethyl)-6H-thieno[2,3-b]pyrrol-2-yl)methanone] | < 100 | – | < 100 | –
Cc1ccc(C(=O)c2cc3cc(C)n(CCN4CCOCC4)c3s2)cc1 [Compound 124, (5-Methyl-6-(2-morpholinoethyl)-6H-thieno[2,3-b]pyrrol-2-yl)(p-tolyl)methanone] | < 100 | – | 100 to 1000 | –
CCCn1c(C)cc2cc(C(=O)c3cccc(Cl)c3Cl)sc21 [Compound 3, (2,3-Dichlorophenyl)(5-methyl-6-propyl-6H-thieno[2,3-b]pyrrol-2-yl)methanone] | < 100 | – | 100 to 1000 | –
